In paper PMC4155686, “Oleoyl Coenzyme A Regulates Interaction of Transcriptional Regulator RaaS (Rv1219c) with DNA in Mycobacteria*” (The Journal of Biological Chemistry, 2014):

Molecular target: RaaS (Rv1219c) (Mycobacterium tuberculosis, UniProt O86312)
Test: biochemical

RaaS (Rv1219c), sequence (O86312 whole entry): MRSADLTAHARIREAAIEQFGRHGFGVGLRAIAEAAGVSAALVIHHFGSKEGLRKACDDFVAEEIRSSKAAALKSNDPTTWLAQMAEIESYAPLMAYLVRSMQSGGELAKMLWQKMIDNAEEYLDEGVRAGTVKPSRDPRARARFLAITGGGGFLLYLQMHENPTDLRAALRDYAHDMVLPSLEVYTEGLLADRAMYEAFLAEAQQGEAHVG

Question: With CCCCCCCC/C=C\CCCCCCCC(=O)SCCNC(=O)CCNC(=O)[C@H](O)C(C)(C)COP(=O)(O)OP(=O)(O)OC[C@H]1O[C@@H](n2cnc3c(N)ncnc32)[C@H](O)[C@@H]1OP(=O)(O)O [oleoyl-CoA] as the compound, how does the Kd read?
Answer: 3.65 ± 0.28 µM
